{"source": "ChEMBL document CHEMBL1201862", "about": "“PubChem BioAssay data set” (2004)", "key": {"[1]": {"target": "Glucose-6-phosphate 1-dehydrogenase (Homo sapiens, UniProt P11413)", "sequence (P11413 whole entry)": "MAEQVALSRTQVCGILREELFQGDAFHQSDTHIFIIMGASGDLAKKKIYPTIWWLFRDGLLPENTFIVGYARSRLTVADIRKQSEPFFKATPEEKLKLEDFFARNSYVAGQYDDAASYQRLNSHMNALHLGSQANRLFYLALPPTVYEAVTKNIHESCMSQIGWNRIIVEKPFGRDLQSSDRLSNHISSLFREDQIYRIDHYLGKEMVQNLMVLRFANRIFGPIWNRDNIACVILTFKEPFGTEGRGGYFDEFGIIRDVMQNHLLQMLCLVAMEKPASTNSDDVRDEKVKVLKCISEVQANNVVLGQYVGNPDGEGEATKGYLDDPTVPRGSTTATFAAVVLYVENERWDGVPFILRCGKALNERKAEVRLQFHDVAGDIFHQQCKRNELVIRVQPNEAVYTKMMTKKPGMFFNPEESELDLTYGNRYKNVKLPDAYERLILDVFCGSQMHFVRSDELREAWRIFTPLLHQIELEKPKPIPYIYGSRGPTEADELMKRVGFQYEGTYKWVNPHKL", "assay": "human G6PD enzyme inhibitors, dose response, selectivity assay for P. falciparum G6PD inhibitor project, biochemical, fluorescence (AID 504792)", "assay_type": "functional"}, "Protein Wnt-3a": {"target": "Protein Wnt-3a (Mus musculus, UniProt P27467)", "sequence (P27467 whole entry)": "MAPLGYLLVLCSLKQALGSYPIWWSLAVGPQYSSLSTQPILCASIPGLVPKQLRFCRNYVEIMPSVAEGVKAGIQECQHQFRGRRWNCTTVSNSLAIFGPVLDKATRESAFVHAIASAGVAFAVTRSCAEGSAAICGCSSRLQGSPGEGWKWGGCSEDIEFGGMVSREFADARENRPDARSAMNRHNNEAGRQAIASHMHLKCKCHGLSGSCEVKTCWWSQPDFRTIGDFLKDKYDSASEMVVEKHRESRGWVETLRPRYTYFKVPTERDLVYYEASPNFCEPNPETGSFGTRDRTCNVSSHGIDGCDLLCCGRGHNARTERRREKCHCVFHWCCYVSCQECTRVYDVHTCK", "assay": "Wnt3a-driven reporter signaling inhibition, dose response, selectivity assay for Gli-SUFU antagonist project, Wnt-LIGHT cells, luminescence (AID 651570);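 further: Wnt-LIGHT reporter cells stimulated with conditioned medium from Wnt3a-producing cells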", "assay_type": "functional", "conditions": "read-out: IC50_Mean"}, "[2]": {"assay": "C. albicans growth with fluconazole, confirmation, fluorescence, retest (AID 2467)", "assay_type": "functional, cell-based"}, "[3]": {"assay": "NIH-3T3 fibroblast cytotoxicity, dose response, cytotoxicity control, cell-based, fluorescence, Alamar Blue, secondary assay (AID 2327);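 further: NIH-3T3 mouse fibroblasts cultured with fluconazole at 8 µg/mL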", "assay_type": "functional"}, "[4]": {"target": "T1, Serine/threonine-protein phosphatase (Candida dubliniensis (strain CD36 / CBS 7987 / NCPF 3949 / NRRLY-17841) (Yeast), UniProt B9W6M3)", "T1 sequence (B9W6M3 whole entry)": "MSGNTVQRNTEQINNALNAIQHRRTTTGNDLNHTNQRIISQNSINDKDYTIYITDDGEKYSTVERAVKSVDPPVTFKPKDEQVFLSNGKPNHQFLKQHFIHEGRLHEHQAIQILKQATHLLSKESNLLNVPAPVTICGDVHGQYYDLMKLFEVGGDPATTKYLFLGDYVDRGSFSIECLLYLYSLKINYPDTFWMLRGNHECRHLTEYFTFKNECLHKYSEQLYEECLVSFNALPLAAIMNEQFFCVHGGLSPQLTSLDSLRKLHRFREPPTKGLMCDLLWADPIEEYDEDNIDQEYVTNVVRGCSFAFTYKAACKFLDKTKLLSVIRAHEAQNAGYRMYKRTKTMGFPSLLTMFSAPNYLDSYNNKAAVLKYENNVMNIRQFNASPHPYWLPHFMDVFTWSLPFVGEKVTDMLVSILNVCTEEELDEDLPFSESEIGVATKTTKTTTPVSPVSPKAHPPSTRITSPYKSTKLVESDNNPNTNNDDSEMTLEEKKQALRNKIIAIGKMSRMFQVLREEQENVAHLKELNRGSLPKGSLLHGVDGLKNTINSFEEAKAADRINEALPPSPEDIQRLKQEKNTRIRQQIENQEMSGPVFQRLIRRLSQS", "assay": "calcineurin pathway inhibitors in yeast reporter, dose response, S. cerevisiae, CDRE-lacZ, luminescence, secondary (AID 2388);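 further: yeast reporter cells carrying a calcineurin-responsive lacZ construct stimulated with calcium chloride; luminescent beta-galactosidase reporter signal in whole cells rather than isolated phosphatase activity; potency for inhibition where a drop in reporter signal means calcineurin blockade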", "assay_type": "functional, cell-based"}, "[5]": {"target": "ATP-dependent molecular chaperone HSP82 (Candida albicans (strain WO-1) (Yeast), UniProt C4YTQ8)", "sequence (C4YTQ8 whole entry)": "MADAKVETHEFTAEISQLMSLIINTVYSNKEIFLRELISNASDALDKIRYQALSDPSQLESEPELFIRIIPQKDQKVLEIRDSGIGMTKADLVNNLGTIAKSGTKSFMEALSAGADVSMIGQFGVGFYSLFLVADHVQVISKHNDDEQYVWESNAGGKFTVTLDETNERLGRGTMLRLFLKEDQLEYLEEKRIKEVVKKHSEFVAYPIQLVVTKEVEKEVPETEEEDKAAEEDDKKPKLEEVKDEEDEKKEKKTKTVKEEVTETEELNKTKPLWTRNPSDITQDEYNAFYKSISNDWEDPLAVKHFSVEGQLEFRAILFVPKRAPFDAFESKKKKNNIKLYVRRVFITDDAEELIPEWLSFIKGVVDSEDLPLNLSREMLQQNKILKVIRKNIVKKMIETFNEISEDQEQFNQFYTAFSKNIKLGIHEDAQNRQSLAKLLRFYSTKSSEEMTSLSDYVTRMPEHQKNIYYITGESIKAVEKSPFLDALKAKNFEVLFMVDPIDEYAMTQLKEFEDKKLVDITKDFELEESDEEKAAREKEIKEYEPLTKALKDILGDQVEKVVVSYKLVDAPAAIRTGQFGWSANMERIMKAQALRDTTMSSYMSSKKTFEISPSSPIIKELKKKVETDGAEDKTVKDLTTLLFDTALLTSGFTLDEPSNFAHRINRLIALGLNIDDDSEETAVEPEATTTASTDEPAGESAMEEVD", "assay": "loss of DOC-induced GRE-beta-galactosidase reporter signal, dose response, Hsp90 inhibitor project, S. cerevisiae, luminescence (AID 2400);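 further: beta-galactosidase luminescence from glucocorticoid response element reporter as proxy for Hsp90 function; inhibitor potency where signal loss means Hsp90 inhibition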", "assay_type": "functional, cell-based"}, "[6]": {"assay": "NIH-3T3 fibroblast cytotoxicity, dose response, cytotoxicity control for antifungal single agent project, cell-based, Alamar Blue, dry powder (AID 602188)", "assay_type": "functional"}, "H9c2": {"system": "H9c2", "assay": "cells", "assay_type": "functional, cell-based", "conditions": "Rattus norvegicus, H9c2, Myocardium"}, "Vero": {"system": "Vero", "assay": "cells", "assay_type": "functional", "conditions": "Chlorocebus sabaeus"}, "[7]": {"target": "Voltage-dependent T-type calcium channel subunit alpha-1H (Homo sapiens, UniProt O95180)", "sequence (O95180 whole entry)": "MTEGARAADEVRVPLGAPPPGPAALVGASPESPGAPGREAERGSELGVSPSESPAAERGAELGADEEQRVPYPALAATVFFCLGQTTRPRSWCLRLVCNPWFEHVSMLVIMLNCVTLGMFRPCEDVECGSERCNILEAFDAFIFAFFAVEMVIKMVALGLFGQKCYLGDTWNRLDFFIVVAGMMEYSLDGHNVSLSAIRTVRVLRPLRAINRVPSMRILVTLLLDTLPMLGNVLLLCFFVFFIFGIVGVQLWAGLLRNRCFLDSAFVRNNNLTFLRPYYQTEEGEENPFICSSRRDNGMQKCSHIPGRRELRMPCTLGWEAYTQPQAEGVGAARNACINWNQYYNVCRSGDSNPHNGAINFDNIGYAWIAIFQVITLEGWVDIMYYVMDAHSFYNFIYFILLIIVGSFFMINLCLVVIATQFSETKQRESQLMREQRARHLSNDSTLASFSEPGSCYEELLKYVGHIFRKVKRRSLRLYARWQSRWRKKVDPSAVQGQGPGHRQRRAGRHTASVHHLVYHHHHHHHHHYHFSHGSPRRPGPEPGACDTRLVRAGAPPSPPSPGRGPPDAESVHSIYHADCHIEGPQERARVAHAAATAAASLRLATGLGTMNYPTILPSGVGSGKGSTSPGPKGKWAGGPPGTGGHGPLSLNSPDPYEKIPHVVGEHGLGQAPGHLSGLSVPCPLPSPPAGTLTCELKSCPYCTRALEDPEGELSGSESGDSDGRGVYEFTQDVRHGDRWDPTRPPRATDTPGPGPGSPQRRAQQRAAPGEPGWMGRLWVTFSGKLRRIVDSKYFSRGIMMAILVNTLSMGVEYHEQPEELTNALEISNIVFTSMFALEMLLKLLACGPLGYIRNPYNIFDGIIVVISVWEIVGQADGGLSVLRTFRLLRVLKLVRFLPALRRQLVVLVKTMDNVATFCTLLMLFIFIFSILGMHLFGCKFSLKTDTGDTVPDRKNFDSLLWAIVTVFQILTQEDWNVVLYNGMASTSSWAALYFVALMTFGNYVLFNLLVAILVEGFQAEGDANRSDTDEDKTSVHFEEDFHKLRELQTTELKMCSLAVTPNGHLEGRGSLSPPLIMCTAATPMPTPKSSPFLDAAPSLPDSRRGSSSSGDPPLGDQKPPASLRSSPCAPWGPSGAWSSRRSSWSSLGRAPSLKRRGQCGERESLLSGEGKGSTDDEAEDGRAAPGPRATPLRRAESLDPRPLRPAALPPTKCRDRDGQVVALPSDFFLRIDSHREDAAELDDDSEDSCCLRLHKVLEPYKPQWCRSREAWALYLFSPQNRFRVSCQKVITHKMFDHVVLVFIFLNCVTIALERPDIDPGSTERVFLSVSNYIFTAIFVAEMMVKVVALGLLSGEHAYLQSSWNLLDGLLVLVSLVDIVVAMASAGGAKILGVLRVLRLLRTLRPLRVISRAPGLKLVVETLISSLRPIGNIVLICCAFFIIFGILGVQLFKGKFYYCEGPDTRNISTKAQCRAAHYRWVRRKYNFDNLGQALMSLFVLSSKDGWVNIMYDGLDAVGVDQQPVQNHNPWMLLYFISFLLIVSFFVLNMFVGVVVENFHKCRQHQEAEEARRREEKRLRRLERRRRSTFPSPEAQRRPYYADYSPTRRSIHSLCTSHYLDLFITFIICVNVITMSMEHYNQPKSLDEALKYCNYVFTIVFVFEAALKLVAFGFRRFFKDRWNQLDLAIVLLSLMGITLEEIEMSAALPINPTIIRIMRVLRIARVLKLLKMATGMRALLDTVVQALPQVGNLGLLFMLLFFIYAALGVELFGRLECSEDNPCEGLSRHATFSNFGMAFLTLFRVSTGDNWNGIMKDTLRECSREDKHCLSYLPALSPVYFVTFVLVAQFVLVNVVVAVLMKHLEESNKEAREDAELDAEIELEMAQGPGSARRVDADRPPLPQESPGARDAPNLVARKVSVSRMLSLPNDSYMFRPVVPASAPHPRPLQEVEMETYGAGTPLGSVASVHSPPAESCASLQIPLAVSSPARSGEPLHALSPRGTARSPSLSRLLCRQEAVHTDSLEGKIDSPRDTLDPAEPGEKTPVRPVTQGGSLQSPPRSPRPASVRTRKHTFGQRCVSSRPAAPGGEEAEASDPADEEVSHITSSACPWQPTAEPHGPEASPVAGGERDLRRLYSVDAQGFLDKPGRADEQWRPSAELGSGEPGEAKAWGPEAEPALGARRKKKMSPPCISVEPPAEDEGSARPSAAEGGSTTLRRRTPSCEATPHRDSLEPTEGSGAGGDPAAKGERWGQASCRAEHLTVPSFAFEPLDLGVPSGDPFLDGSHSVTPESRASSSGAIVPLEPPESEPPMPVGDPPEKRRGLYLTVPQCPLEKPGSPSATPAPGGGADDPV", "assay_type": "functional"}, "[8]": {"assay": "ZM109 Env clade C HIV-1 fusion inhibitors, dose response, HeLa effector, CEM target cells, luciferase, cherry-pick (AID 652058)", "assay_type": "functional, cell-based"}, "[9]": {"assay": "inhibitors of clade B AD8 Env fusion, dose response, cell-based, cherry-pick (AID 652062);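 further: potency is for inhibitors of fusion seen as a drop in luminescence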", "assay_type": "functional"}, "[10]": {"assay": "CEM21 lymphoblast cell cytotoxicity, dose response, cytotoxicity control for viral fusion inhibitor project, CellTiter-Glo luminescence, cherry-picked (AID 652042);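 further: potency for signal decrease meaning cytotoxicity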", "assay_type": "functional, cell-based"}, "[11]": {"assay": "off-target signal loss in HeLa-CEM21 co-culture – HeLa F-luc CTL cells, cherry-picked, counter-screen for HIV-1 Env fusion inhibitor project, dose response (AID 652040);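 further: potency for signal decrease marking cytotoxic or nonspecific inhibition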", "assay_type": "functional, cell-based"}, "[12]": {"assay": "inhibitors of HIV Env-driven cell fusion, dose response, cherry-pick (AID 652057)", "assay_type": "functional, cell-based"}, "[13]": {"target": "T2, Mitochondrial peptide methionine sulfoxide reductase (Bos taurus, UniProt P54149)", "T2 sequence (P54149 whole entry)": "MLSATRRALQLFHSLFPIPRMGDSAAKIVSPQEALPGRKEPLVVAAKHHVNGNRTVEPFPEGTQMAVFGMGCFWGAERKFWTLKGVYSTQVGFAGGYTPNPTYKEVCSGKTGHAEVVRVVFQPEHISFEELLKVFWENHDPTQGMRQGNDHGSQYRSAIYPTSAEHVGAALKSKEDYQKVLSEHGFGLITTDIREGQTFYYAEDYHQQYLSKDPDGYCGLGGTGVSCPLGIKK", "assay_type": "functional"}, "[14]": {"target": "T3, Long-chain-fatty-acid--AMP ligase FadD28 (Mycobacterium tuberculosis, UniProt P9WQ59)", "T3 sequence (P9WQ59 whole entry)": "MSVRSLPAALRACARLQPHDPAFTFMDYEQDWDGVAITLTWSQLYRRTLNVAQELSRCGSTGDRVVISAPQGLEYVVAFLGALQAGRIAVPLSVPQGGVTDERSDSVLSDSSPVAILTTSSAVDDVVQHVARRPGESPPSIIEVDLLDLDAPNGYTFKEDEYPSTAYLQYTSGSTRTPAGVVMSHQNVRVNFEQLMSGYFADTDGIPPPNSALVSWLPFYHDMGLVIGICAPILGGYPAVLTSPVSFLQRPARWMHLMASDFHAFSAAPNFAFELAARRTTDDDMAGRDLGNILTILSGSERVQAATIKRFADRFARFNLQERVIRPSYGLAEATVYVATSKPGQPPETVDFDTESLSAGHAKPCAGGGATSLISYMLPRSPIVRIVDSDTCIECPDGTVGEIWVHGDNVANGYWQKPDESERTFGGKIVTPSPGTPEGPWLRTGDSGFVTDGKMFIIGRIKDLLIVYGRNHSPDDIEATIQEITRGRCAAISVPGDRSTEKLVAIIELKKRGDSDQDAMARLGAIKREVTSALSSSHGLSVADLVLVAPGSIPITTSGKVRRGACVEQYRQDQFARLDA", "assay": "Fluorescence polarization aasay to screen for inhibitors that compete for the binding of FadD28 to a bisubstrate Measured in Biochemical System Using Plate Reader - 2147-01_Inhibitor_Dose_CherryPick_Activity.", "assay_type": "functional, Mycobacterium tuberculosis H37Rv"}, "[15]": {"assay": "cytotoxicity toward NIH3T3 fibroblasts, dose response, counter-screen, cell-based, ATP luminescence, mouse fibroblasts (AID 2010);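 further: cells exposed to compound for about 90 hours before reading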", "assay_type": "functional"}, "[16]": {"target": "SWI/SNF-related matrix-associated actin-dependent regulator of chromatin subfamily A member 2 (Homo sapiens, UniProt P51531)", "assay": "Luminescence-based cell-based high throughput dose response assay to identify activators of the function of SWI/SNF related, matrix associated, actin dependent regulator of chromatin, subfamily a, member 2 (SMARCA2, BRM).", "assay_type": "functional"}, "Aminopeptidase N": {"target": "T4, Aminopeptidase N (Plasmodium falciparum FcB1/Columbia, UniProt O96935)", "T4 sequence (O96935 whole entry)": "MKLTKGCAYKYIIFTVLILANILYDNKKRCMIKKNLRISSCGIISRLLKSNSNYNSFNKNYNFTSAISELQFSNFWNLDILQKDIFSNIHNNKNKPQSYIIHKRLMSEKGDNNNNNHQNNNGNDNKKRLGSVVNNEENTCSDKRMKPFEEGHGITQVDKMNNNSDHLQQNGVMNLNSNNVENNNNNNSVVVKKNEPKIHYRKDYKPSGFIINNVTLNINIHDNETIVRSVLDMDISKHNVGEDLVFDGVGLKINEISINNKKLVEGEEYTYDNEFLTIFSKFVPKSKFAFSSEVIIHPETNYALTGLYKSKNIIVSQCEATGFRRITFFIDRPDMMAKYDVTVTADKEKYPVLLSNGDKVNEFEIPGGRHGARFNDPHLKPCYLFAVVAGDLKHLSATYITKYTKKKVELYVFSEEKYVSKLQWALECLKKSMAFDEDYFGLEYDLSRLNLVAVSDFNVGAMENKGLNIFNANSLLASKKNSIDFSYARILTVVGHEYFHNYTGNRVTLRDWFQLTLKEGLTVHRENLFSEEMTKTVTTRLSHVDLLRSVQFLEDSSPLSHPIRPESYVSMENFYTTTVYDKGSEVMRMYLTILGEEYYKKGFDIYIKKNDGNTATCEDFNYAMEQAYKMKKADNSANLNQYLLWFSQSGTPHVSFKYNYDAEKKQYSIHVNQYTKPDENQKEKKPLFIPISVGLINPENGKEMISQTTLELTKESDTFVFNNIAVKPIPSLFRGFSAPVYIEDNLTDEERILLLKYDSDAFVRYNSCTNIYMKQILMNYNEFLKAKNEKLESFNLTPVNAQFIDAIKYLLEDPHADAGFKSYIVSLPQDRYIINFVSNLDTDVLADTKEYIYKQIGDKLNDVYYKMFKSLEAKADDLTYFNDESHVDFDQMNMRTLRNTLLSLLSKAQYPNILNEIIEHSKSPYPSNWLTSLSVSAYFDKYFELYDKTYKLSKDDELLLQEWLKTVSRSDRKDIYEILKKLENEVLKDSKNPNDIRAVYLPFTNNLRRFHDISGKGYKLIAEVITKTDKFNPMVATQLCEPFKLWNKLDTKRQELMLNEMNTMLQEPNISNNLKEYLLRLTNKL", "assay": "P. falciparum M1AAP inhibitors, biochemical, fluorogenic H-Leu-NHMec substrate, 1536-well (AID 1445)", "design": "species or system Plasmodium falciparum 3D7, 3D7"}, "[17]": {"target": "T5, DNA repair protein RAD52 homolog (Homo sapiens, UniProt P43351)", "T5 sequence (P43351 whole entry)": "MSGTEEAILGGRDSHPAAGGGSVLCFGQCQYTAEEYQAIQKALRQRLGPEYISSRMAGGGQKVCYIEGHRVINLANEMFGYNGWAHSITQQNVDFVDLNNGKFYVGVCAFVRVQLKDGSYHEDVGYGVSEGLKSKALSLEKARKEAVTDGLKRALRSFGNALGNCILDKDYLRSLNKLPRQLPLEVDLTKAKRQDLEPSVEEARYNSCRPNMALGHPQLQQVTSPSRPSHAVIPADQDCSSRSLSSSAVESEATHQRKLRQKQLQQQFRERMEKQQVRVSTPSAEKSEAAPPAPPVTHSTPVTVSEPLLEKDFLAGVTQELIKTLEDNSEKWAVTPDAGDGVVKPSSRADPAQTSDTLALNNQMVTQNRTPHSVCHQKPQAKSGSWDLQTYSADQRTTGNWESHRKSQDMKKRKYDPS", "assay_type": "functional, biochemical"}, "[18]": {"assay": "Counterscreen for activators of the function of SWI/SNF related, matrix associated, actin dependent regulator of chromatin, subfamily a, member 2 (SMARCA2, BRM): Luminescence-based cell-based high throughput dose response assay to identify non-selective compounds using the VP16 reporter assay.", "assay_type": "functional"}, "[19]": {"assay": "inhibitors of intracellular T. cruzi replication, confirmation, NIH3T3 host cells, beta-gal luminescence (AID 2044);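 further: luminescent beta-galactosidase reporter signal from transgenic T. cruzi replicating inside host cells; inhibitors lower the luminescence signal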", "assay_type": "functional, cell-based"}}, "note": "Active and inactive are the calls of the source.", "data": [{"smiles": "Cc1cc(C)nc(NC(N)=Nc2ccccc2-c2ccccc2)n1", "values": [{"measurement": "IC50", "setting": "[1]", "value": "> 80 µM (inactive)"}, {"measurement": "IC50", "setting": "Protein Wnt-3a", "value": "16.9 µM (active)"}]}, {"smiles": "O=C(Nc1nnc(-c2ccc3c(c2)CCCC3)o1)c1ccccc1", "values": [{"measurement": "EC50", "setting": "[2]", "value": "0.229 µM (active)"}, {"measurement": "EC50", "setting": "[3]", "value": "> 160 µM (inactive)"}, {"measurement": "EC50", "setting": "[4]", "value": "> 180 µM (inactive)"}, {"measurement": "EC50", "setting": "[5]", "value": "4.72 µM (active)"}, {"measurement": "AC50", "setting": "[6]", "value": "4.89 µM (active)"}, {"measurement": "IC50", "setting": "H9c2", "value": "> 79 µM (inactive)"}, {"measurement": "CC50", "setting": "Vero", "value": "> 25 µM (active)"}, {"measurement": "EC50", "setting": "[7]", "value": "3.25 µM (active)"}]}, {"smiles": "NC(c1csc(NC(=O)Nc2cccc(Cl)c2)n1)c1ccccc1Cl", "note": "(centres undefined)", "values": [{"measurement": "AC50", "setting": "[8]", "value": "16.2 µM (active)"}, {"measurement": "AC50", "setting": "[9]", "value": "28.5 µM (active)"}, {"measurement": "AC50", "setting": "[10]", "value": "16.4 µM (active)"}, {"measurement": "AC50", "setting": "[11]", "value": "29.4 µM (active)"}, {"measurement": "AC50", "setting": "[12]", "value": "11.9 µM (active)"}]}, {"smiles": "Nc1nc2ccccc2n1/N=C/c1ccc2c(c1)OCO2", "values": [{"measurement": "IC50", "setting": "[13]", "value": "45.6 µM (inactive)"}]}, {"smiles": "C/C(=N\\Nc1ccc(C#N)cc1[N+](=O)[O-])c1ccc(O)cc1", "values": [{"measurement": "IC50", "setting": "[13]", "value": "155 µM (inactive)"}]}, {"smiles": "O=C(CCC(=O)Nc1ccc(F)cc1)N/N=C/c1c[nH]c2ccccc12", "values": [{"measurement": "AC50", "setting": "[14]", "value": "49 µM (active)"}]}, {"smiles": "Cc1nc(NC(=N)N)nc2c(C)cccc12", "values": [{"measurement": "EC50", "setting": "[15]", "value": "> 60 µM (not active)"}, {"measurement": "EC50", "setting": "[16]", "value": "> 10.1 µM (inactive)"}, {"measurement": "IC50", "setting": "Aminopeptidase N", "value": "47.6 µM (active)"}, {"measurement": "AC50", "setting": "[17]", "value": "1.4 µM (active)"}, {"measurement": "EC50", "setting": "[18]", "value": "> 91.1 µM (inactive)"}, {"measurement": "EC50", "setting": "[19]", "value": "0.371 µM (active)"}]}]}
